According to ChEMBL document CHEMBL1201862, “PubChem BioAssay data set” (2004):
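Growth conditions: 96-well plates. Treatment: test compound, 48 hours, 5 concentrations. Analysis: linear interpolation between bracketing concentrations; unreached endpoints set to highest concentration. GI50: concentration for 50% inhibition of growth.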 Activity calls are given as the source filed them. No stated cut-off is given here; in the data, active = GI50 up to about 1.1 µM and inactive = higher.

Columns and labels:
Experiment in all cases: NCI-60 cell line screen, 48 h
A498 = system: A498
CAKI-1 = system: CAKI-1
DU-145 = system: DU-145
Hs-578T = system: Hs-578T
K562 = system: K562
KM12 = system: KM12
MCF7 = system: MCF7
NCI-H23 = system: NCI-H23
OVCAR-4 = system: OVCAR-4
PC-3 = system: PC-3
RPMI-8226 = system: RPMI-8226
SF-295 = system: SF-295
SK-MEL-28 = system: SK-MEL-28
SK-MEL-2 = system: SK-MEL-2
SNB-19 = system: SNB-19
T47D = system: T47D
TK-10 = system: TK-10
U-251 = system: U-251
UO-31 = system: UO-31
SK-OV-3 = system: SK-OV-3

Measured: GI50

COc1cc2c(cc1OC)C(C1CC1)ON(C)CC2 (centres undefined)
inactive: A498 > 100 µM | CAKI-1 > 100 µM | DU-145 > 100 µM | Hs-578T > 100 µM | K562 > 100 µM | KM12 > 100 µM | MCF7 > 100 µM | NCI-H23 > 100 µM | OVCAR-4 > 100 µM | PC-3 > 100 µM | RPMI-8226 > 100 µM | SF-295 > 100 µM | SK-MEL-28 > 100 µM | SK-MEL-2 > 100 µM | SNB-19 > 100 µM | T47D > 100 µM | TK-10 > 100 µM | U-251 > 100 µM | UO-31 > 100 µM

COc1ccc(/C=C2/C(C)=NN(c3cccc(Cl)c3)/C2=N/c2nc3ccccc3s2)cc1
inactive: A498 23.1 µM | CAKI-1 28.4 µM | DU-145 19.6 µM | Hs-578T 24.7 µM | K562 26.7 µM | KM12 30.4 µM | MCF7 28.8 µM | NCI-H23 16.9 µM | OVCAR-4 37.4 µM | PC-3 19 µM | RPMI-8226 22.7 µM | SF-295 22.5 µM | SK-MEL-28 20.6 µM | SK-MEL-2 22.3 µM | SK-OV-3 24 µM | T47D 34 µM | TK-10 29 µM | U-251 20.7 µM | UO-31 19.3 µM

NC(Cc1ccc(S(=O)(=O)O)cc1)C(=O)NC(Cc1ccc(S(=O)(=O)O)cc1)C(=O)NC(Cc1ccc(S(=O)(=O)O)cc1)C(=O)O (centres undefined)
inactive: A498 > 100 µM | CAKI-1 > 100 µM | DU-145 > 100 µM | Hs-578T > 100 µM | K562 > 100 µM | KM12 > 100 µM | MCF7 > 100 µM | NCI-H23 > 100 µM | OVCAR-4 > 100 µM | PC-3 > 100 µM | RPMI-8226 > 100 µM | SF-295 > 100 µM | SK-MEL-28 > 100 µM | SK-MEL-2 > 100 µM | T47D > 100 µM | TK-10 > 100 µM | U-251 > 100 µM | UO-31 > 100 µM

Nc1ccc(C2SCC(=O)N2NS(=O)(=O)c2cccc(C(=O)O)c2)cc1 (centres undefined)
inactive: A498 > 100 µM | CAKI-1 > 100 µM | DU-145 > 100 µM | Hs-578T > 100 µM | K562 > 100 µM | KM12 > 100 µM | MCF7 > 100 µM | NCI-H23 > 100 µM | PC-3 > 100 µM | RPMI-8226 10.4 µM | SF-295 > 100 µM | SK-MEL-28 > 100 µM | SK-MEL-2 > 100 µM | SK-OV-3 > 100 µM | SNB-19 > 100 µM | T47D 58.3 µM | TK-10 > 100 µM | U-251 > 100 µM | UO-31 > 100 µM

O=C1NC(=O)C(C(c2ccc([N+](=O)[O-])cc2)C2C(=O)NC(=O)NC2=O)C(=O)N1
inactive: A498 > 100 µM | CAKI-1 > 100 µM | DU-145 > 100 µM | Hs-578T > 100 µM | K562 > 100 µM | KM12 > 100 µM | MCF7 > 100 µM | NCI-H23 > 100 µM | OVCAR-4 > 100 µM | PC-3 > 100 µM | RPMI-8226 > 100 µM | SF-295 > 100 µM | SK-MEL-28 > 100 µM | SK-MEL-2 > 100 µM | SNB-19 > 100 µM | T47D > 100 µM | TK-10 > 100 µM | U-251 > 100 µM | UO-31 > 100 µM
